Measurements published in article PMC12156041, “Design, Synthesis and Antiplasmodial Activities of a Library of Fluorine-Based 3-Benzylmenadiones” (Molecules, 2025).
≈ marks a conversion by molar mass, not a printed value. Read-outs that look alike come from different tables or passages of the source.

Tests used:
[1] = tested on: P. falciparum NF54 strain; experiment: P. falciparum NF54 [3H]hypoxanthine incorporation assay, 72 h, 0.5% Albumax; format: cell-based; settings: Plasmodium falciparum
[2] = tested on: rat myoblast cell line (L6 cells); format: cell-based
Excerpt: Considering the potency of plasmodione and the observed main metabolite 6-hydroxy–plasmodione eliminated in the urine of PD-treated mice, our primary goal was to introduce a fluorine atom at C-6 of the menadione core to block the process of drug metabolism from occurring in the host’s liver. In this aim, we prioritized the preparation of a library of 6-fluoro-3-benzylmenadiones by investigating the replacement of the trifluoromethyl group by diverse EWG and EDG groups in various loci of the aryl ring. For SAR, all compounds were tested for the inhibition of parasite growth in RBCs infected with a P. falciparum chloroquine-sensitive strain, NF54. The parasites were cultured in vitro according to known conditions. […] The cytotoxicity of the active compounds was assessed against a rat myoblast cell line (L6 cells).
Cell proliferation was assessed with resazurin, and the generally cytotoxic agent podophyllotoxin served as the positive control, as previously reported by the STPH authors M. R. and P. M. in their recently published article.

[3] = tested on: P. falciparum NF54 strain; settings: cited from earlier work
[4] = tested on: rat myoblast cell line (L6 cells); settings: cited from earlier work
[5] = Thermodynamic aqueous solubility (shake-flask, PBS-10% DMSO); format: physicochemical; settings: PBS with 10% DMSO, aqueous with cosolvent or surfactant or cyclodextrin, PBS pH 7.4, 10% DMSO, 20 °C, read-out: Thermodynamic aq. Solubility in PBS-10% DMSO
Method: Thermodynamic Aqueous Solubility: The shake-flask method enabled us to determine the apparent thermodynamic solubilities of the DMSO stock solutions of the compounds. […] The mixture was equilibrated at 20 °C for 24 h. After centrifugation, the supernatant was injected into an HPLC column coupled to an LC-MS apparatus (with UV–Vis detection) in order to determine the compound concentration. […] These solutions were also injected in order to calibrate the concentration determination process. […] Measurements were performed in duplicate.

[6] = NF54, 72 h, P. falciparum NF54, 72 h, read-out: IC50
[7] = NF54, as stated in text, read-out: IC50 against P. falciparum NF54
[8] = NF54, read-out: IC50 against P. falciparum NF54

Row | IC50 [1, 6] | Compound | Tox/L6 [2] | other results
1 | 82 nM | CC1=C(Cc2cccc(C(F)(F)F)c2)C(=O)c2cc(F)ccc2C1=O [A-a-1] | 12.5 µM | –
2 | 138 nM | CC1=C(Cc2ccccc2C(F)(F)F)C(=O)c2cc(F)ccc2C1=O [A-a-2] | 53.4 µM | –
3 | 330 nM | CC1=C(Cc2ccc(OC(F)(F)F)cc2)C(=O)c2cc(F)ccc2C1=O [A-a-3] | 138.8 µM | –
4 | 302 nM | CC1=C(Cc2ccc(F)cc2)C(=O)c2cc(F)ccc2C1=O [A-a-4] | 174.5 µM | –
5 | 246 nM | CC1=C(Cc2cccc(F)c2)C(=O)c2cc(F)ccc2C1=O [A-a-5] | 6.6 µM | –
6 | 119 nM | CC1=C(Cc2ccccc2F)C(=O)c2cc(F)ccc2C1=O [A-a-6] | 7.6 µM | –
7 | 735 nM | CC1=C(Cc2ccc(C(F)(F)F)c(F)c2)C(=O)c2cc(F)ccc2C1=O [A-a-7] | 85.5 µM | –
8 | 167 nM | CC1=C(Cc2ccc(C(F)(F)F)c(Br)c2)C(=O)c2cc(F)ccc2C1=O [A-a-8] | – | –
9 | 149 nM | CC1=C(Cc2ccc(F)c(C(F)(F)F)c2)C(=O)c2cc(F)ccc2C1=O [A-a-9] | – | –
10 | 231 nM | CC1=C(Cc2ccc(C#N)cc2)C(=O)c2cc(F)ccc2C1=O [A-a-10] | 95 µM | –
11 | 264 nM | CC1=C(Cc2ccccc2C#N)C(=O)c2cc(F)ccc2C1=O [A-a-11] | 327.0 µM | –
12 | 177 nM | CC1=C(Cc2ccc([N+](=O)[O-])cc2)C(=O)c2cc(F)ccc2C1=O [A-a-12] | 307.0 µM | –
13 | 198 nM | CC1=C(Cc2ccc(I)cc2)C(=O)c2cc(F)ccc2C1=O [A-a-13] | 40.9 µM | –
14 | 137 nM | CC1=C(Cc2ccc(Cl)cc2Cl)C(=O)c2cc(F)ccc2C1=O [A-a-14] | – | –
15 | 103 nM | CC1=C(Cc2ccc(Cl)cc2C(F)(F)F)C(=O)c2cc(F)ccc2C1=O [A-a-15] | – | –
16 | 1120 nM | COc1ccc(CC2=C(C)C(=O)c3ccc(F)cc3C2=O)cc1 [A-a-16] | 195.9 µM | –
17 | 361 nM | COc1cccc(CC2=C(C)C(=O)c3ccc(F)cc3C2=O)c1 [A-a-17] | 165.6 µM | –
18 | 572 nM | COc1ccccc1CC1=C(C)C(=O)c2ccc(F)cc2C1=O [A-a-18] | 189.3 µM | –
19 | 171 nM | COc1ccc(CC2=C(C)C(=O)c3ccc(F)cc3C2=O)cc1OC [A-a-19] | 5.6 µM | –
20 | 316 nM | COc1ccc(CC2=C(C)C(=O)c3ccc(F)cc3C2=O)c(OC)c1 [A-a-20] | 106.6 µM | –
21 | 70 nM | CC1=C(Cc2ccc3c(c2)OCO3)C(=O)c2cc(F)ccc2C1=O [A-a-21] | 165.6 µM | IC50 [1, 7]: < 100 nM
22 | 311 nM | CC1=C(Cc2ccc3c(c2)OCCO3)C(=O)c2cc(F)ccc2C1=O [A-a-22] | – | –
23 | 338 nM | CC1=C(Cc2ccc3c(c2)OC(C)(C)O3)C(=O)c2cc(F)ccc2C1=O [A-a-23] | – | –

Row | IC50 [1, 6] | Compound | Tox/L6 [2] | other results
24 | 206 nM | CC1=C(Cc2ccc3c(c2)OC(F)(F)O3)C(=O)c2cc(F)ccc2C1=O [A-a-24] | – | –
25 | 340 nM | COc1ccc(CC2=C(C)C(=O)c3ccc(F)cc3C2=O)c(OC)c1OC [A-a-25] | 215.5 µM | –
26 | 291 nM | COc1ccc(OC)c(CC2=C(C)C(=O)c3ccc(F)cc3C2=O)c1 [A-a-26] | 91.7 µM | –
27 | 265 nM | COc1cc(CC2=C(C)C(=O)c3ccc(F)cc3C2=O)cc(OC)c1OC [A-a-27] | 72.4 µM | –
28 | 474 nM | CC1=C(Cc2cccs2)C(=O)c2cc(F)ccc2C1=O [A-a-28] | 5.8 µM | –
29 | 718 nM | CC1=C(CC2CCCCC2)C(=O)c2cc(F)ccc2C1=O [A-a-29] | 177.8 µM | –
30 | – | CC1=C(Cc2ccc(F)cc2)C(=O)c2ccccc2C1=O [A-b-4] | – | IC50 [1, 8]: < 100 nM; IC50 ([3]; grey line ref 13): 29 nM
31 | 453 nM | CC1=C(Cc2ccccc2F)C(=O)c2ccccc2C1=O [A-b-6] | – | –
32 | 2960 nM | CC1=C(Cc2ccc(C(F)(F)F)c(F)c2)C(=O)c2ccccc2C1=O [A-b-7] | 49.2 µM | –
33 | 81 nM | CC1=C(Cc2ccc(C(F)(F)F)c(Br)c2)C(=O)c2ccccc2C1=O [A-b-8] | – | IC50 [1, 7]: < 100 nM
34 | 312 nM | CC1=C(Cc2ccccc2C#N)C(=O)c2ccccc2C1=O [A-b-11] | 186.2 µM | –
35 | – | CC1=C(Cc2ccc([N+](=O)[O-])cc2)C(=O)c2ccccc2C1=O [A-b-12] | – | IC50 [1, 8]: > 200 nM; IC50 ([3]; grey line ref 8): 201 nM
36 | 67 nM | CC1=C(Cc2ccc(Cl)cc2Cl)C(=O)c2ccccc2C1=O [A-b-14] | – | IC50 [1, 7]: < 100 nM
37 | 80 nM | CC1=C(Cc2ccc(Cl)cc2C(F)(F)F)C(=O)c2ccccc2C1=O [A-b-15] | – | IC50 [1, 7]: < 100 nM
38 | – | COc1ccc(CC2=C(C)C(=O)c3ccccc3C2=O)cc1OC [A-b-19] | – | IC50 ([3]; grey line ref 13): 142 nM; Tox/L6 ([4]; grey line ref 13): 5.6 µM
39 | 200 nM | CC1=C(Cc2ccc3c(c2)OCO3)C(=O)c2ccccc2C1=O [A-b-21] | 97.9 µM | –
40 | 280 nM | CC1=C(Cc2ccc3c(c2)OCCO3)C(=O)c2ccccc2C1=O [A-b-22] | – | –
41 | 152 nM | CC1=C(Cc2ccc3c(c2)OC(C)(C)O3)C(=O)c2ccccc2C1=O [A-b-23] | – | –
42 | 77 nM | CC1=C(Cc2ccc3c(c2)OC(F)(F)O3)C(=O)c2ccccc2C1=O [A-b-24] | – | IC50 [1, 7]: < 100 nM
43 | 115 nM | CC1=C(Cc2cccs2)C(=O)c2ccccc2C1=O [A-b-28] | 5.2 µM | –
44 | 913 nM | CC1=C(CC2CCCCC2)C(=O)c2ccccc2C1=O [A-b-29] | 229.9 µM | –
45 | – | CC1=C(Cc2ccco2)C(=O)c2ccccc2C1=O [A-b-43] | – | IC50 ([3]; grey line ref 8): 501 nM; Tox/L6 ([4]; grey line ref 8): 4.2 µM
46 | 326 nM | CC1=C(Cc2cccc(C#N)c2)C(=O)c2cc(F)ccc2C1=O [B-a-30] | 33.3 µM | –

Row | IC50 [1, 6] | Compound | Tox/L6 [2] | other results
47 | 300 nM | CC1=C(Cc2ccccc2)C(=O)c2cc(F)ccc2C1=O [B-a-31] | 174.5 µM | –
48 | 705 nM | CC1=C(Cc2ccc([N+](=O)[O-])c(F)c2)C(=O)c2cc(F)ccc2C1=O [B-a-32] | 107.4 µM | –
49 | 376 nM | CC1=C(Cc2ccc(F)c(I)c2)C(=O)c2cc(F)ccc2C1=O [B-a-33] | – | –
50 | 169 nM | CC1=C(Cc2ccc(Br)cc2C(F)(F)F)C(=O)c2cc(F)ccc2C1=O [B-a-34] | – | –
51 | 711 nM | COc1cc(CC2=C(C)C(=O)c3ccc(F)cc3C2=O)cc(OC)c1 [B-a-35] | 293.0 µM | –
52 | – | CC1=C(Cc2cccc(C(F)(F)F)c2)C(=O)c2ccccc2C1=O [B-b-1] | – | IC50 [1, 7]: < 100 nM; IC50 ([3]; grey line ref 9): 62 nM; Tox/L6 ([4]; grey line ref 9): 57.1 µM
53 | – | CC1=C(Cc2ccccc2C(F)(F)F)C(=O)c2ccccc2C1=O [B-b-2] | – | IC50 [1, 7]: < 100 nM; IC50 ([3]; grey line ref 9): 26 nM; Tox/L6 ([4]; grey line ref 9): 249.8 µM
54 | 89 nM | CC1=C(Cc2cccc(F)c2)C(=O)c2ccccc2C1=O [B-b-5] | 71.0 µM | IC50 [1, 7]: < 100 nM
55 | – | CC1=C(Cc2ccc(I)cc2)C(=O)c2ccccc2C1=O [B-b-13] | – | IC50 ([3]; grey line ref 9): 115 nM; Tox/L6 ([4]; grey line ref 9): 138.6 µM
56 | 190 nM | CC1=C(Cc2cccc(C#N)c2)C(=O)c2ccccc2C1=O [B-b-30] | 72.6 µM | –
57 | – | CC1=C(Cc2ccccc2)C(=O)c2ccccc2C1=O [B-b-31] | – | IC50 ([3]; grey line ref 9): 1700 nM
58 | – | CC1=C(Cc2ccc([N+](=O)[O-])c(F)c2)C(=O)c2ccccc2C1=O [B-b-32] | – | IC50 ([3]; grey line ref 9): 598 nM; Tox/L6 ([4]; grey line ref 9): 189.2 µM
59 | 136 nM | CC1=C(Cc2ccc(F)c(I)c2)C(=O)c2ccccc2C1=O [B-b-33] | – | –
60 | 78 nM | CC1=C(Cc2ccc(Br)cc2C(F)(F)F)C(=O)c2ccccc2C1=O [B-b-34] | – | –
61 | 2060 nM | CC1=C(Cc2ccc3scnc3c2)C(=O)c2cc(F)ccc2C1=O [C-a-40] | – | –
62 | 2530 nM | CC1=C(Cc2ccc3ncsc3c2)C(=O)c2cc(F)ccc2C1=O [C-a-41] | – | –
63 | 947 nM | CC1=C(Cc2ccco2)C(=O)c2cc(F)ccc2C1=O [C-a-43] | 3.8 µM | –
64 | 235 nM | CC1=C(Cc2ccc3scnc3c2)C(=O)c2ccccc2C1=O [C-b-40] | 50.29 µM | –
65 | 370 nM | CC1=C(Cc2ccc3ncsc3c2)C(=O)c2ccccc2C1=O [C-b-41] | 49.81 µM | –
66 | 48 nM | CC1=C(Cc2ccc(S(F)(F)(F)(F)F)cc2)C(=O)c2ccccc2C1=O [C-b-46, 4′-SF5-substituted 3-benzylmenadione] | 35.1 µM | –
67 | – | O=C1C(O)=C([C@H]2CC[C@H](c3ccc(Cl)cc3)CC2)C(=O)c2ccccc21 [atovaquone, reference compound] | – | solubility thermodynamic at 24 h [5]: 1.55 ± 0.04 µM (≈ 0.569 µg/mL)
